Data taken from patent publication US12577226B2, “Compounds for treating Huntington's disease” (PTC THERAPEUTICS, INC., priority 2019, dated 2026).

test system: Endogenous Huntingtin Protein (capture with MW1 (expanded polyglutamine) or MAB2166 antibody); assay: Endogenous Huntingtin Protein Assay (ELISA-based Meso Scale Discovery electrochemiluminescence assay); assay type: cell-based; settings: MSD electrochemiluminescence platform
How it was run: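 MSD electrochemiluminescence sandwich immunoassay: plates coated with 1 μg/mL MW1 or MAB2166 capture antibody, samples incubated overnight at 4 °C. Detection with rabbit monoclonal #5656S then SULFO-TAG anti-rabbit (each 0.25 μg/mL, 1 h RT).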

Compound | IC50 [nM]
CC(C)[C@H]1CN(c2ncc(-c3ncc(-c4cc(F)c5nn(C)cc5c4)cc3O)nn2)CCN1 [Compound 155, 5-(7-fluoro-2-methyl-2H-indazol-5-yl)-2-{3-[(3S)-3-(propan-2-yl)piperazin-1-yl]-1,2,4-triazin-6-yl}pyridin-3-ol] | ≤ 100
CC1(C)CC(Oc2ccc(-c3ncc(-c4cn[nH]c4)cc3O)nn2)CC2(CC2)N1 (stereo not shown) [Compound 27, 2-{6-[(5,5-dimethyl-4-azaspiro[2.5]octan-7-yl)oxy]pyridazin-3-yl}-5-(1H-pyrazol-4-yl)pyridin-3-ol] | ≤ 100
Cn1cc2cc(-c3cnc(-c4ccc(N5CCNC6(CC6)C5)nn4)c(O)c3)cc(F)c2n1 [Compound 98, 2-[6-(4,7-diazaspiro[2.5]octan-7-yl)pyridazin-3-yl]-5-(7-fluoro-2-methyl-2H-indazol-5-yl)pyridin-3-ol] | ≤ 100
[2H]C([2H])([2H])n1cc(-c2cnc(-c3ccc(N4CCC(NC(C)(C)C)C4)nn3)c(O)c2)cn1 (stereo not shown) [Compound 29, 2-{6-[3-(tert-butylamino)pyrrolidin-1-yl]pyridazin-3-yl}-5-[1-(^2H3)methyl-1H-pyrazol-4-yl]pyridin-3-ol] | ≤ 100
CN(c1ncc(-c2ncc(-c3cn[nH]c3)cc2O)nn1)C1CC(C)(C)NC(C)(C)C1 [Compound 135, 2-{3-[methyl(2,2,6,6-tetramethylpiperidin-4-yl)amino]-1,2,4-triazin-6-yl}-5-(1H-pyrazol-4-yl)pyridin-3-ol] | ≤ 100
CN(c1cnc(-c2ncc(-c3cn[nH]c3)cc2O)nn1)C1CC(C)(C)NC(C)(C)C1 [Compound 162, 2-{6-[methyl(2,2,6,6-tetramethylpiperidin-4-yl)amino]-1,2,4-triazin-3-yl}-5-(1H-pyrazol-4-yl)pyridin-3-ol] | ≤ 100
[2H]C([2H])([2H])n1cc(-c2cnc(-c3ccc(O[C@H]4C[C@@H](C)NC5(CC5)C4)nn3)c(O)c2)cn1 [Compound 82, 2-(6-{[(5R,7S)-5-methyl-4-azaspiro[2.5]octan-7-yl]oxy}pyridazin-3-yl)-5-[1-(^2H3)methyl-1H-pyrazol-4-yl]pyridin-3-ol] | ≤ 100
CC1(C)CC(Oc2ccc(-c3ncc(-n4cncn4)cc3O)nn2)CC(C)(C)N1 [Compound 61, 2-{6-[(2,2,6,6-tetramethylpiperidin-4-yl)oxy]pyridazin-3-yl}-5-(1H-1,2,4-triazol-1-yl)pyridin-3-ol] | ≤ 100
2-{6-[(3R,5R)-3,5-dimethylpiperazin-1-yl]pyridazin-3-yl}-5-(7-fluoro-2-methyl-2H-indazol-5-yl)pyridin-3-ol and 2-{6-[(3S,5R)-3,5-dimethylpiperazin-1-yl]pyridazin-3-yl}-5-(7-fluoro-2-methyl-2H-indazol-5-yl)pyridin-3-ol [Compound 106] | ≤ 100
Oc1cc(-n2nccn2)cnc1-c1cnc(N2CCN[C@@H](C3CC3)C2)nn1 [Compound 159, 2-{3-[(3S)-3-cyclopropylpiperazin-1-yl]-1,2,4-triazin-6-yl}-5-(2H-1,2,3-triazol-2-yl)pyridin-3-ol] | 100 to 500
2-(6-{[(3R,4S)-3-fluoro-2,2,6,6-tetramethylpiperidin-4-yl]oxy}pyridazin-3-yl)-5-(2-methylimidazo[1,2-a]pyrimidin-6-yl)pyridin-3-ol and 2-(6-{[(3S,4R)-3-fluoro-2,2,6,6-tetramethylpiperidin-4-yl]oxy}pyridazin-3-yl)-5-(2-methylimidazo[1,2-a]pyrimidin-6-yl)pyridin-3-ol [Compound 54] | ≤ 100
Cn1cc2c(-c3cnc(-c4ccc(O[C@@H]5CC(C)(C)NC(C)(C)[C@@H]5F)nn4)c(O)c3)ccc(F)c2n1.Cn1cc2c(-c3cnc(-c4ccc(O[C@H]5CC(C)(C)NC(C)(C)[C@H]5F)nn4)c(O)c3)ccc(F)c2n1 (mixture of isomers) [Compound 58, 5-(7-fluoro-2-methyl-2H-indazol-4-yl)-2-(6-{[(3R,4S)-3-fluoro-2,2,6,6-tetramethylpiperidin-4-yl]oxy}pyridazin-3-yl)pyridin-3-ol and 5-(7-fluoro-2-methyl-2H-indazol-4-yl)-2-(6-{[(3S,4R)-3-fluoro-2,2,6,6-tetramethylpiperidin-4-yl]oxy}pyridazin-3-yl)pyridin-3-ol] | 500 to 1000
2-(3-{[(3R,4R)-3-fluoro-2,2,6,6-tetramethylpiperidin-4-yl]amino}-1,2,4-triazin-6-yl)-5-[1-(^2H3)methyl-1H-pyrazol-4-yl]pyridin-3-ol and 2-(3-{[(3S,4S)-3-fluoro-2,2,6,6-tetramethylpiperidin-4-yl]amino}-1,2,4-triazin-6-yl)-5-[1-(^2H3)methyl-1H-pyrazol-4-yl]pyridin-3-ol [Compound 140] | ≤ 100
CC1CN(c2ccc(-c3ncc(-c4cc(F)c5nn(C)cc5c4)cc3O)nn2)CCN1 (stereo not shown) [Compound 97, 5-(7-fluoro-2-methyl-2H-indazol-5-yl)-2-[6-(3-methylpiperazin-1-yl)pyridazin-3-yl]pyridin-3-ol] | ≤ 100
CC1(C)CC(Oc2ccc(-c3ncc(-n4ccnn4)cc3O)nn2)CC(C)(C)N1 [Compound 63, 2-{6-[(2,2,6,6-tetramethylpiperidin-4-yl)oxy]pyridazin-3-yl}-5-(1H-1,2,3-triazol-1-yl)pyridin-3-ol] | 100 to 500
CC1(C)CC(Oc2ccc(-c3ncc(-c4ncco4)cc3O)nn2)CC(C)(C)N1 [Compound 10, 5-(1,3-oxazol-2-yl)-2-{6-[(2,2,6,6-tetramethylpiperidin-4-yl)oxy]pyridazin-3-yl}pyridin-3-ol] | ≤ 100
CN(c1ccc(-c2ncc(-c3cc(F)c4nn(C)cc4c3)cc2O)nn1)C1CC(C)(C)NC2(CC2)C1 (stereo not shown) [Compound 64, 2-{6-[(5,5-dimethyl-4-azaspiro[2.5]octan-7-yl)(methyl)amino]pyridazin-3-yl}-5-(7-fluoro-2-methyl-2H-indazol-5-yl)pyridin-3-ol] | ≤ 100
CC1CN(c2ccc(-c3ncc(NCc4cccc5cccnc45)cc3O)nn2)CCN1 (stereo not shown) [Compound 113, 2-[6-(3-methylpiperazin-1-yl)pyridazin-3-yl]-5-{[(quinolin-8-yl)methyl]amino}pyridin-3-ol] | 500 to 1000
[2H]C([2H])([2H])n1cc(-c2cnc(-c3ccc(O[C@@H]4C[C@@H](C)NC5(CC5)C4)nn3)c(O)c2)cn1 [Compound 85, 2-(6-{[(5R,7R)-5-methyl-4-azaspiro[2.5]octan-7-yl]oxy}pyridazin-3-yl)-5-[1-(^2H3)methyl-1H-pyrazol-4-yl]pyridin-3-ol] | 500 to 1000
CC1(C)CC(Oc2ncc(-c3ncc(-c4cn[nH]c4)cc3O)nn2)CC(C)(C)N1 [Compound 141, 5-(1H-pyrazol-4-yl)-2-{3-[(2,2,6,6-tetramethylpiperidin-4-yl)oxy]-1,2,4-triazin-6-yl}pyridin-3-ol] | 500 to 1000
C[C@@H]1CN(c2ccc(-c3ncc(-c4ccc5c(cnn5C)c4)cc3O)nn2)C[C@H](C)N1 [Compound 126, 2-{6-[(3R,5S)-3,5-dimethylpiperazin-1-yl]pyridazin-3-yl}-5-(1-methyl-1H-indazol-5-yl)pyridin-3-ol and 2-{6-[(3S,5R)-3,5-dimethylpiperazin-1-yl]pyridazin-3-yl}-5-(1-methyl-1H-indazol-5-yl)pyridin-3-ol] | 100 to 500
CC(C)(C)NC1CCN(c2ncc(-c3ncc(-c4cn[nH]c4)cc3O)nn2)C1 (stereo not shown) [Compound 136, 2-{3-[3-(tert-butylamino)pyrrolidin-1-yl]-1,2,4-triazin-6-yl}-5-(1H-pyrazol-4-yl)pyridin-3-ol] | ≤ 100
